Measured values from the supplement of paper PMC10307832.

Assays:
Test in all cases: relative viability (nuclei count vs DMSO), 5 days (fraction); higher = more cells survive
[1] = compound: CCc1c2c(nc3ccc(OC(=O)N4CCC(N5CCCCC5)CC4)cc13)-c1cc3c(c(=O)n1C2)COC(=O)[C@]3(O)CC [Irinotecan] + Cc1cc(Nc2cc(N3CCN(C)CC3)nc(Sc3ccc(NC(=O)C4CC4)cc3)n2)n[nH]1 [Tozasertib] (partner 0.1 µM)
Method in brief: (§1)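 Nuclei were stained with Hoechst during a one-step fixation (final 0.05% Triton X-100, 1% formaldehyde, 1 ug/ml Hoechst) carried out 5 days after dosing, then counted on 4× images. The cells, lung cancer lines in 1536-well plates, had been dosed by pin tool the day after seeding with one drug alone or a fixed anchor-drug dose plus five library-drug doses (not always all listed) in √10 steps. Relative viability is the nuclei count in treated wells divided by that in vehicle wells, and each value is the median of duplicate plates.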

[2] = compound: CCc1c2c(nc3ccc(OC(=O)N4CCC(N5CCCCC5)CC4)cc13)-c1cc3c(c(=O)n1C2)COC(=O)[C@]3(O)CC [Irinotecan] + Nc1ncn([C@H]2C[C@H](O)[C@@H](CO)O2)c(=O)n1 [Decitabine] (partner 2 µM)
Method in brief: as §1

[3] = compound: CC[C@@H](C)CNCC(=O)N1CCC2=C([C@@H]1COC3=CC=CC(=C3)C)C=CS2 [RU-SKI 43] + CS(=O)(=O)CCNCc1ccc(-c2ccc3ncnc(Nc4ccc(OCc5cccc(F)c5)c(Cl)c4)c3c2)o1 [Lapatinib] (partner 2 µM)
Method in brief: as §1

[4] = compound: CC[C@@H](C)CNCC(=O)N1CCC2=C([C@@H]1COC3=CC=CC(=C3)C)C=CS2 [RU-SKI 43] + COc1cc2c(Oc3ccc(NC(=O)C4(C(=O)Nc5ccc(F)cc5)CC4)cc3F)ccnc2cc1OCCCN1CCOCC1 [Foretinib] (partner 0.25 µM)
Method in brief: as §1

Row | Cell Line | relative viability ([1]; first compound 2 µM) | relative viability ([1]; first compound 6.325 µM) | relative viability ([1]; first compound 20 µM) | relative viability ([2]; first compound 0.6325 µM) | relative viability ([2]; first compound 2 µM) | relative viability ([2]; first compound 6.325 µM) | relative viability ([2]; first compound 20 µM) | relative viability ([3]; first compound 0.1 µM) | relative viability ([3]; first compound 0.3162 µM) | relative viability ([3]; first compound 1 µM) | relative viability ([3]; first compound 3.162 µM) | relative viability ([3]; first compound 10 µM) | relative viability ([4]; first compound 0.1 µM) | relative viability ([4]; first compound 0.3162 µM) | relative viability ([4]; first compound 1 µM) | relative viability ([4]; first compound 3.162 µM) | relative viability ([4]; first compound 10 µM) | relative viability ([1]; first compound 0.6325 µM)
1 | 201T | 0.682 | 0.402 | 0.318 | 0.714 | 0.615 | 0.295 | 0.298 | 1.1 | 0.997 | 1.06 | 1.05 | 1.01 | 1.04 | 1.11 | 1.12 | 1.07 | 1.01 | 
2 | A549 |  |  |  |  | 0.26 | 0.197 | 0.0737 | 0.95 | 1.13 | 1.09 | 0.908 | 0.759 | 1.12 | 1.1 | 1.06 | 0.93 | 0.852 | 
3 | A-427 | 0.159 | 0.216 | 0.182 | 0.566 | 0.573 | 0.347 | 0.198 | 1.01 | 1.22 | 1.1 |  | 1 | 1.14 | 1.03 | 1.13 | 1.11 | 0.969 | 
4 | ABC-1 | 0.236 | 0.211 | 0.114 |  | 0.851 | 0.515 | 0.475 | 1.23 | 1.42 | 1.12 | 1.18 | 1.24 | 1.04 | 1.05 | 1.04 | 1.06 | 0.754 | 
5 | BEN | 0.499 | 0.447 | 0.34 | 0.503 | 0.793 | 0.493 | 0.504 | 0.691 | 0.607 | 0.961 | 0.589 | 0.684 | 0.789 | 0.548 | 0.992 | 0.53 | 0.705 | 0.378
6 | CAL-12T | 0.419 | 0.322 | 0.197 |  |  |  |  | 0.661 | 0.759 | 0.551 | 0.562 | 0.619 | 1.05 | 1.31 | 1.09 | 1.18 | 1.06 | 
7 | COR-L23 | 0.225 | 0.176 | 0.105 | 0.314 | 0.336 | 0.192 | 0.104 | 0.982 | 0.845 | 1.3 | 1.04 | 0.996 | 0.914 | 1.19 | 1.24 | 1.04 | 0.842 | 0.161
8 | COR-L 105 | 0.373 | 0.458 | 0.273 | 0.605 | 0.586 | 0.555 | 0.364 | 0.411 | 0.344 | 0.379 | 0.376 | 0.351 | 0.995 | 0.903 | 1.18 | 1.04 | 0.736 | 0.346
9 | Calu-6 |  |  |  |  |  |  |  | 1.28 | 1.43 | 1.08 | 1.1 | 0.982 | 0.958 | 0.976 | 0.973 | 0.859 | 0.724 | 
10 | ChaGo-K-1 | 0.205 | 0.193 | 0.218 | 0.344 | 0.251 | 0.233 | 0.239 |  |  |  |  |  | 0.854 | 1.07 | 0.98 | 0.862 | 0.818 | 0.216
11 | EBC-1 |  |  |  |  |  |  |  | 0.186 | 0.189 | 0.215 | 0.197 | 0.181 | 0.103 | 0.0955 | 0.101 | 0.0987 | 0.109 | 
12 | EKVX | 0.258 | 0.303 | 0.177 |  | 0.27 | 0.262 | 0.229 | 0.185 | 0.175 | 0.202 | 0.208 | 0.187 | 0.735 | 0.712 | 0.876 | 0.719 | 0.499 | 0.336
13 | EMC-BAC-2 | 0.269 | 0.259 | 0.406 | 0.933 | 0.719 | 0.432 | 0.277 | 0.924 | 0.961 | 0.933 | 0.983 | 0.916 | 1.01 | 0.998 | 1.04 | 1.01 | 0.986 | 0.263
14 | EPLC-272H | 0.252 | 0.258 | 0.25 |  | 0.33 | 0.223 | 0.151 | 0.913 | 0.831 | 1.25 |  | 0.833 | 0.717 | 0.677 | 0.745 | 0.744 | 0.592 | 0.165
15 | H3255 | 0.501 | 0.375 | 0.437 |  | 0.456 | 0.266 | 0.225 | 0.249 | 0.193 | 0.174 | 0.192 | 0.213 | 0.914 | 0.83 | 0.817 | 0.708 | 0.841 | 0.513
16 | HARA | 0.12 | 0.107 | 0.103 | 0.481 | 0.318 | 0.284 | 0.283 | 0.816 | 0.832 | 0.771 | 0.705 | 0.76 | 1.06 | 1.25 | 1.01 | 1.25 | 1.13 | 0.0659
17 | HCC-15 | 0.332 | 0.164 | 0.151 | 0.363 | 0.45 | 0.381 | 0.14 | 0.906 | 1.16 | 1.04 | 0.787 | 0.717 | 1.1 | 1.17 | 1.16 | 1.11 | 1.04 | 
18 | HCC-44 | 1.17 | 0.377 | 0.308 | 0.87 | 0.913 | 0.677 | 0.512 | 1.12 | 1.02 | 1.15 | 1.04 | 0.995 |  |  |  |  |  | 
19 | HCC-78 | 0.356 | 0.21 | 0.0831 | 0.607 | 0.479 | 0.335 | 0.328 | 0.843 | 0.626 | 1.24 | 0.513 | 0.369 | 0.541 | 0.6 | 0.592 | 0.591 | 0.479 | 0.411
20 | HCC-366 | 0.109 | 0.0553 | 0.0875 | 0.341 | 0.212 | 0.104 | 0.0739 | 1.03 | 1.33 | 1.21 | 1.15 | 1.05 | 0.975 | 1.01 | 0.994 | 1.04 | 0.811 | 0.0963
